One may read the IC50 as the concentration needed to halve the response being measured.

In the assay the target is T1, human NaV 1.8 (Homo sapiens, UniProt Q9Y5Y9).
T1 construct: expressed in transfected cells; host or cells: HEK (recombinant cell line)
T1 sequence (Q9Y5Y9 whole entry): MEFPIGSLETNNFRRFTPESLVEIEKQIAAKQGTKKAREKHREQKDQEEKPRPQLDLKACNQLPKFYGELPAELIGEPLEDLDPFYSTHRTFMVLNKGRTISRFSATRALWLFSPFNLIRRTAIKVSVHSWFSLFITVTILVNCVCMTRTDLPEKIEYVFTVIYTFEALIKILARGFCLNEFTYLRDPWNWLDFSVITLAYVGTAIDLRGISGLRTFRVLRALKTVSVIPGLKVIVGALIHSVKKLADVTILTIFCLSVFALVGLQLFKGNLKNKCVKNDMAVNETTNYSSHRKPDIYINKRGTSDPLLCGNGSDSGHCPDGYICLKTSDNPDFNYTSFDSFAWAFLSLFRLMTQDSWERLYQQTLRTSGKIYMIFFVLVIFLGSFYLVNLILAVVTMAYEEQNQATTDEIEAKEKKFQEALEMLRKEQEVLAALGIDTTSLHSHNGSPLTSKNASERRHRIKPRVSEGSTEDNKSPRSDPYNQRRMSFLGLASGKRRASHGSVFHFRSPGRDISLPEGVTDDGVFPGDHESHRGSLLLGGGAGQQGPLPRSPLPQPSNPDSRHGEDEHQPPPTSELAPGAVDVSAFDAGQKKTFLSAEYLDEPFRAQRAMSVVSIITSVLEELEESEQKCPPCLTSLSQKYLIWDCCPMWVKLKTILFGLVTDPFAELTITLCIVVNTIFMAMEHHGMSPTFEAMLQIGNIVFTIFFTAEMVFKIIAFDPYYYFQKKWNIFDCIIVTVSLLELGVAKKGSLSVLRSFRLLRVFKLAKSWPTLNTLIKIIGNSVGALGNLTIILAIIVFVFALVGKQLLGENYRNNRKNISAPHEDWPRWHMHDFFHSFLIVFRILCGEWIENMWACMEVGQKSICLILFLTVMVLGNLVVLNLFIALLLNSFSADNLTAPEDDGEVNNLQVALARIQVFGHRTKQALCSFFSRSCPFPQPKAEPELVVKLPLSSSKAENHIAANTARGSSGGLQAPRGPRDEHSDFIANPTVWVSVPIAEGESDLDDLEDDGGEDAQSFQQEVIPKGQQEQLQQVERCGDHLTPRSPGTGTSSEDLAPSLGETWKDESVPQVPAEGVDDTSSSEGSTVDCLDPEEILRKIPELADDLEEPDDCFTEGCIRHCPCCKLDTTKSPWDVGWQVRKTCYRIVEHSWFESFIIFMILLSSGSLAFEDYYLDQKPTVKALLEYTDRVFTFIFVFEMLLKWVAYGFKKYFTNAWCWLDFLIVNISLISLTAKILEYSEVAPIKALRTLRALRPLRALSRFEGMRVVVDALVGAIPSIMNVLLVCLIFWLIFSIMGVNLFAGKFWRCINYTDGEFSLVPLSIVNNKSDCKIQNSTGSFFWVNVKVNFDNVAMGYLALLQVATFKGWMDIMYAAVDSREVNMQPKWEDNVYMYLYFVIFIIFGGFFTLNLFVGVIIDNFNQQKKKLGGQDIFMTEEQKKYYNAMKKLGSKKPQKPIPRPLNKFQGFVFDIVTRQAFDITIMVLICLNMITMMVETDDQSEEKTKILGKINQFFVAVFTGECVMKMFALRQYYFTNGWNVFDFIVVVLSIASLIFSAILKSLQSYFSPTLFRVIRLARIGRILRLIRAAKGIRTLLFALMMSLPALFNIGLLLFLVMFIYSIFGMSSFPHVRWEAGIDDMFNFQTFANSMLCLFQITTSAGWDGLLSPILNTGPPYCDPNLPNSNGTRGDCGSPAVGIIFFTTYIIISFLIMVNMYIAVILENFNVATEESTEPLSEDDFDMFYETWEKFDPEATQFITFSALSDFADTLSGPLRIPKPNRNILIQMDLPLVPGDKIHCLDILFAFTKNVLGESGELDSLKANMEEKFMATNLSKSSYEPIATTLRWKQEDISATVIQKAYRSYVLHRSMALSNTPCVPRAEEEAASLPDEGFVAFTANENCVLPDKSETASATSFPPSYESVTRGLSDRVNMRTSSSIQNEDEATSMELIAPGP
In words: Automated whole-cell patch clamp (Qube384) voltage-clamp recordings of sodium currents in HEK-NaV1.8 cell line. Format: cell-based. The settings on record: read-out: Potency category (human NaV 1.8 IC50). In a few lines: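 HEK cells expressing NaV1.8 with b3, whole-cell automated voltage clamp at room temperature or 19° C.; CsF-based internal, pH 7.4 external. State-dependent (−120 mV, V1/2 4 s, −10 mV test pulses) and 10/20 Hz 40-pulse protocols; ~12 min compound, vehicle-corrected, IC50 by 4-parameter logistic fit.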
`CS(=N)(=O)c1cc(NC(=O)c2c(C(F)(F)F)c(C3CC3)nn2CC2C(F)(F)C23CCC3)ccn1` (single isomer, unassigned) [Example 136a, 3-Cyclopropyl-1-((2,2-difluorospiro[2.3]hexan-1-yl)methyl)-N-(2-(S-methylsulfonimidoyl)pyridin-4-yl)-4-(trifluoromethyl)-1H-pyrazole-5-carboxamide]: the IC50 is no more than 100 nM. The value for `CC1(Cn2nc(C(C)(C)C)c(C(F)(F)F)c2C(=O)Nc2ccnc(S(C)(=N)=O)c2)CC(F)(F)C1` (single isomer, unassigned) [Example 143b, 3-(Tert-butyl)-1-((3,3-difluoro-1-methylcyclobutyl)methyl)-N-(2-(S-methylsulfonimidoyl)pyridin-4-yl)-4-(trifluoromethyl)-1H-pyrazole-5-carboxamide] was no more than 100 nM. The value for `Cc1c(C(C)(F)F)nn(CC2(C)CC(F)(F)C2)c1C(=O)Nc1ccnc(S(C)(=N)=O)c1` (single isomer, unassigned) [Example 5b, 1-((3,3-difluoro-1-methylcyclobutyl)methyl)-3-(1,1-difluoroethyl)-4-methyl-N-(2-(S-methylsulfonimidoyl)pyridin-4-yl)-1H-pyrazole-5-carboxamide] was no more than 100 nM; that for `CC1(Cn2nc(C34CC(F)(C3)C4)c(C(F)(F)F)c2C(=O)Nc2ccc(F)c(S(C)(=N)=O)c2)CC(F)(F)C1` (single isomer, unassigned) [Example 141a, 1-((3,3-Difluoro-1-methylcyclobutyl)methyl)-N-(4-fluoro-3-(S-methylsulfonimidoyl)phenyl)-3-(3-fluorobicyclo[1.1.1]pentan-1-yl)-4-(trifluoromethyl)-1H-pyrazole-5-carboxamide] was no more than 100 nM. As to `COC1(c2nn(CC3(C)CC(F)(F)C3)c(C(=O)Nc3ccnc(S(C)(=N)=O)c3)c2C(F)(F)F)CC1` (single isomer, unassigned) [Example 71a, 1-((3,3-difluoro-1-methylcyclobutyl)methyl)-3-(1-methoxycyclopropyl)-N-(2-(S-methylsulfonimidoyl)pyridin-4-yl)-4-(trifluoromethyl)-1H-pyrazole-5-carboxamide], the IC50 is 100 to 1000 nM. The value for `C[C@H]1C[C@@H]1c1nn(CC2(C)CC(F)(F)C2)c(C(=O)Nc2ccnc([S@](C)(=N)=O)c2)c1C(F)(F)F` (single isomer, unassigned) [Example 65a, 1-((3,3-Difluoro-1-methylcyclobutyl)methyl)-3-((trans)-2-methylcyclopropyl)-N-(2-(S-methylsulfonimidoyl)pyridin-4-yl)-4-(trifluoromethyl)-1H-pyrazole-5-carboxamide] was no more than 100 nM; that for `Cc1c(C(C)(F)F)nn(CC2CCC(F)(F)C2)c1C(=O)Nc1ccnc(S(C)(=N)=O)c1` (centres unmarked) [Example 4, 1-((3,3-Difluorocyclopentyl)methyl)-3-(1,1-difluoroethyl)-4-methyl-N-(2-(S-methylsulfonimidoyl)pyridin-4-yl)-1H-pyrazole-5-carboxamide] was no more than 100 nM. The value for `CC1(Cn2nc(C3(F)CC3)c(C(F)F)c2C(=O)Nc2cccc(S(C)(=N)=O)c2)CC(F)(F)C1` (single isomer, unassigned) [Example 135b, 1-((3,3-Difluoro-1-methylcyclobutyl)methyl)-4-(difluoromethyl)-3-(1-fluorocyclopropyl)-N-(3-(S-methylsulfonimidoyl)phenyl)-1H-pyrazole-5-carboxamide] was no more than 100 nM. The value for `CC1(Cn2nc(C3(F)CC3)c(C(F)(F)F)c2C(=O)Nc2cccc([S@](C)(=O)=NC(=O)CO)c2)CC(F)(F)C1` [Example 151b] was no more than 100 nM; that for `CS(=N)(=O)c1cc(NC(=O)c2c(C(F)(F)F)c(C3CC3)nn2CC23CCC(F)(CC2)C3)ccn1` (single isomer, unassigned) [Example 106b, 3-cyclopropyl-1-((4-fluorobicyclo[2.2.1]heptan-1-yl)methyl)-N-(2-(S-methylsulfonimidoyl)pyridin-4-yl)-4-(trifluoromethyl)-1H-pyrazole-5-carboxamide] was no more than 100 nM. Take `C[S@](=N)(=O)c1cc(NC(=O)c2c(C(F)(F)F)c(C3CC3)nn2C[C@@H]2C(F)(F)C23CC3)ccn1` (single isomer, unassigned) [Example 79d, 3-cyclopropyl-1-((2,2-difluorospiro[2.2]pentan-1-yl)methyl)-N-(2-(S-methylsulfonimidoyl)pyridin-4-yl)-4-(trifluoromethyl)-1H-pyrazole-5-carboxamide]: the IC50 is no more than 100 nM. `CS(=N)(=O)c1cc(NC(=O)c2c(C(F)(F)F)c(C3CC3)nn2CC2CC3(C2)CC(F)(F)C3)ccn1` (single isomer, unassigned) [Example 27b, 3-cyclopropyl-1-((6,6-difluorospiro[3.3]heptan-2-yl)methyl)-N-(2-(S-methylsulfonimidoyl)pyridin-4-yl)-4-(trifluoromethyl)-1H-pyrazole-5-carboxamide]: the IC50 was no more than 100 nM. As for `CS(=N)(=O)c1cc(NC(=O)c2c(C(F)(F)F)c(C3CC3)nn2CC2C3(CC3)C23CC3)ccn1` (single isomer, unassigned) [Example 80a, 3-cyclopropyl-1-(dispiro[2.0.24.13]heptan-7-ylmethyl)-N-(2-(S-methylsulfonimidoyl)pyridin-4-yl)-4-(trifluoromethyl)-1H-pyrazole-5-carboxamide], the IC50 was no more than 100 nM. Under `CC1(Cn2nc(C3(F)CC3)c(C(F)(F)F)c2C(=O)Nc2ccc(F)c(S(C)(=N)=O)c2)CC(F)(F)C1` (single isomer, unassigned) [Example 126a, 1-((3,3-Difluoro-1-methylcyclobutyl)methyl)-N-(4-fluoro-3-(S-methylsulfonimidoyl)phenyl)-3-(1-fluorocyclopropyl)-4-(trifluoromethyl)-1H-pyrazole-5-carboxamide] stands no more than 100 nM; under `CS(=N)(=O)c1cc(NC(=O)c2c(C(F)(F)F)c(C3CC3)nn2CC2CCC(F)(F)C2)ccn1` (single isomer, unassigned) [Example 7a, 3-cyclopropyl-1-((3,3-difluorocyclopentyl)methyl)-N-(2-(S-methylsulfonimidoyl)pyridin-4-yl)-4-(trifluoromethyl)-1H-pyrazole-5-carboxamide], no more than 100 nM. The value for `Cc1c(C(C)(F)F)nn(CC23CC(C(F)(F)F)(C2)C3)c1C(=O)Nc1ccnc(S(C)(=N)=O)c1` (single isomer, unassigned) [Example 15a, 3-(1,1-difluoroethyl)-4-methyl-N-(2-(S-methylsulfonimidoyl)pyridin-4-yl)-1-((3-(trifluoromethyl)bicyclo[1.1.1]pentan-1-yl)methyl)-1H-pyrazole-5-carboxamide] was no more than 100 nM; that for `CS(=N)(=O)c1cc(NC(=O)c2c(C(F)(F)F)c(C3CC3)nn2CC2C3(CC3)C23CC3)ccn1` (single isomer, unassigned) [Example 80b, 3-cyclopropyl-1-(dispiro[2.0.24.13]heptan-7-ylmethyl)-N-(2-(S-methylsulfonimidoyl)pyridin-4-yl)-4-(trifluoromethyl)-1H-pyrazole-5-carboxamide] was no more than 100 nM; that for `C[S@](=N)(=O)c1cc(NC(=O)c2c(C(F)(F)F)c(C3CC3)nn2C[C@H]2C(F)(F)C23CC3)ccn1` (single isomer, unassigned) [Example 79b, 3-cyclopropyl-1-((2,2-difluorospiro[2.2]pentan-1-yl)methyl)-N-(2-(S-methylsulfonimidoyl)pyridin-4-yl)-4-(trifluoromethyl)-1H-pyrazole-5-carboxamide] was no more than 100 nM.

Consider `COC12CC(c3nn(CC4(C)CC(F)(F)C4)c(C(=O)Nc4ccnc(S(C)(=N)=O)c4)c3C(F)(F)F)(C1)C2` (centres unmarked) [Example 122, 1-((3,3-Difluoro-1-methylcyclobutyl)methyl)-3-(3-methoxybicyclo[1.1.1]pentan-1-yl)-N-(2-(S-methylsulfonimidoyl)pyridin-4-yl)-4-(trifluoromethyl)-1H-pyrazole-5-carboxamide], for which the IC50 is no more than 100 nM.

With `CC1(Cn2nc(C3CC3)c(C(F)(F)F)c2C(=O)Nc2ccnc(S(C)(=N)=O)c2)CC(F)(F)C1` (single isomer, unassigned) [Example 1b, 3-cyclopropyl-1-((3,3-difluoro-1-methylcyclobutyl)methyl)-N-(2-(S-methylsulfonimidoyl)pyridin-4-yl)-4-(trifluoromethyl)-1H-pyrazole-5-carboxamide], the IC50 is no more than 100 nM.

In the case of `CC1(Cn2nc(C3(C)CC3)c(C(F)(F)F)c2C(=O)Nc2ccnc(S(C)(=N)=O)c2)CC(F)(F)C1` (single isomer, unassigned) [Example 69b, 1-((3,3-difluoro-1-methylcyclobutyl)methyl)-3-(1-methylcyclopropyl)-N-(2-(S-methylsulfonimidoyl)pyridin-4-yl)-4-(trifluoromethyl)-1H-pyrazole-5-carboxamide], the IC50 was no more than 100 nM. The value for `CC1(Cn2nc(C(C)(F)F)c(C(F)(F)F)c2C(=O)Nc2ccnc(S(C)(=N)=O)c2)CC(F)(F)C1` (single isomer, unassigned) [Example 75b, 1-((3,3-difluoro-1-methylcyclobutyl)methyl)-3-(1,1-difluoroethyl)-N-(2-(S-methylsulfonimidoyl)pyridin-4-yl)-4-(trifluoromethyl)-1H-pyrazole-5-carboxamide] was no more than 100 nM. The value for `C[C@@]1(Cn2nc(C3CC3)c(C(F)(F)F)c2C(=O)Nc2ccnc([S@](C)(=N)=O)c2)CC(F)(F)C12CC2` (single isomer, unassigned) [Example 92c, 3-cyclopropyl-1-((6,6-difluoro-4-methylspiro[2.3]hexan-4-yl)methyl)-N-(2-(S-methylsulfonimidoyl)pyridin-4-yl)-4-(trifluoromethyl)-1H-pyrazole-5-carboxamide] was no more than 100 nM.

For the origin of these results see patent publication US12685726B2, “Sulfoximines as inhibitors of NaV1.8” (Gruenenthal GmbH, priority 2022, dated 2026).
